Columns and labels:
Assay type in all cases: in vivo
Phytophthora infestans = assay: whole plant or invertebrate; conditions: for pest or weed control at 250 ppm: Phytophthora infestans, in Solanum lycopersicum, read-out: Test D disease control rating; for Test D disease control rating: tomato seedlings
Botrytis cinerea = assay: Test C: preventive spray on tomato seedlings, gray mold, visual disease rating; conditions: for pest or weed control at 250 ppm: Botrytis cinerea
How it was run: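 Tomato seedlings received a run-off spray, typically 250 ppm (or stated rate), ahead of gray mold inoculation and visual scoring. Test suspensions: acetone stock (3% of volume) diluted into 1:1 acetone/water containing PEG400.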

Zymoseptoria tritici = assay: Test E: preventive spray on wheat seedlings, wheat leaf blotch, visual disease rating; conditions: for pest or weed control at 250 ppm: Zymoseptoria tritici
How it was run: (§1)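 Preventive foliar spray of wheat seedlings to run-off, at 250 ppm or other indicated rate. Compounds dissolved in acetone (3% of final volume), suspended in 50/50 acetone–water with PEG400 surfactant. Disease rated visually.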

[1] = test system: Puccinia recondita f. sp. tritici; assay: Test F: preventive spray on wheat seedlings, wheat leaf rust, visual disease rating; conditions: for pest or weed control at 250 ppm: Puccinia recondita
How it was run: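 Preventive test: wheat seedlings were sprayed to run-off with compound suspended in acetone/water 50/50 plus PEG400 (250 ppm or other indicated rate). One day later they received Puccinia recondita f. sp. tritici spores, and disease was scored visually.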

[2] = test system: Erysiphe graminis f. sp. tritici; assay: Test G: preventive spray on wheat seedlings, wheat powdery mildew, visual disease rating; conditions: for pest or weed control at 250 ppm: Blumeria graminis, 192 h
How it was run: as §1

Plasmopara viticola = assay: Test B: preventive spray on grape seedlings, grape downy mildew, disease rating
Source text: General protocol for preparing test solutions for Tests AG: the test compounds were first dissolved in acetone in an amount equal to 3% of the final volume and then suspended at the desired concentration (in ppm) in acetone and purified water (50/50 mix by volume) containing the surfactant PEG400 (polyhydric alcohol esters). The resulting test suspensions were then used in Tests AG. Compounds were sprayed at a concentration of 250 ppm or other indicated rate to the point of run-off on the test plants. The test solution was sprayed to the point of run-off on grape seedlings. […] A dash (-) indicates no test results.

Phakopsora pachyrhizi = assay: Test A: preventive spray on soybean seedlings, Asian soybean rust, visual disease rating; conditions: 250 ppm, 100 = 100% disease control, 0 = no control
[3] = 250 ppm, 100 = 100% disease control, 0 = no control

Structure (SMILES)	Test B disease control rating (Plasmopara viticola; [3])	Test D disease control rating (Phytophthora infestans; [3])	Test C disease control rating (Botrytis cinerea; [3])	Test E disease control rating (Zymoseptoria tritici; [3])	Test F disease control rating [1, 3]	Test G disease control rating [2, 3]	other results
Cn1ncc(O)c(C(=O)Nc2ccc(C(F)(F)F)cc2)c1=O [Compound 2, 2,3-Dihydro-5-hydroxy-2-methyl-3-oxo-N-[4-(trifluoromethyl)phenyl]-4-pyridazinecarboxamide]	97%						pest or weed control at 250 ppm (Phytophthora infestans): 99%; pest or weed control at 250 ppm (Botrytis cinerea; [3]): 0%; pest or weed control at 250 ppm (Zymoseptoria tritici; [3]): 97%; pest or weed control at 250 ppm [1, 3]: 100%; pest or weed control at 250 ppm [2, 3]: 97%
Cn1ncc(O)c(C(=O)Nc2ccc(Cl)nc2)c1=O [Compound 6]	85%	88%	99%	57%	99%	0%	
Cc1nnc(NC(=O)c2c(O)cnn(C)c2=O)s1 [Compound 13]	65%	0%	0%	0%	0%	0%	
Cn1ncc(O)c(C(=O)Nc2ccc(OC(F)(F)F)cc2)c1=O [Compound 21, 2,3-Dihydro-5-hydroxy-2-methyl-3-oxo-N-[4-(trifluoromethoxy)phenyl]-4-pyridazinecarboxamide]	93%						pest or weed control at 250 ppm (Phytophthora infestans): 97%; pest or weed control at 250 ppm (Botrytis cinerea; [3]): 0%; pest or weed control at 250 ppm (Zymoseptoria tritici; [3]): 98%; pest or weed control at 250 ppm [1, 3]: 99%; pest or weed control at 250 ppm [2, 3]: 98%
Cn1nc(-c2ccccc2)c(O)c(C(=O)Nc2ccccc2C(F)(F)F)c1=O [Compound 26]	49%	58%	0%	0%	68%	84%	
Cn1ncc(O)c(C(=O)Nc2ccc(Cl)cc2Cl)c1=O [Compound 37]	86%	95%	0%	51%	94%	76%	
Cn1ncc(O)c(C(=O)Nc2ncc(Cl)cn2)c1=O [Compound 38]	20%	0%	0%	0%	68%	0%	
Cn1ncc(O)c(C(=O)NC2CCCCC2)c1=O [Compound 39]	70%	0%	0%	0%	0%	69%	
Cn1ncc(O)c(C(=O)Nc2ncccc2Cl)c1=O [Compound 45]	88%	94%	99%	0%	98%	0%	
CC(=O)Oc1cnn(C)c(=O)c1C(=O)N(C(C)=O)c1ccc(OC(F)(F)F)cc1 [Compound 84]							Test D disease control rating (Phytophthora infestans; 280 ppm): 100%; Test C disease control rating (Botrytis cinerea; 280 ppm): 0%; Test E disease control rating (Zymoseptoria tritici; 280 ppm): 100%; Test F disease control rating ([1]; 280 ppm): 100%; Test G disease control rating ([2]; 280 ppm): 99%; Test B disease control rating (Plasmopara viticola; 280 ppm): 99%
CCCC(=O)Oc1cnn(C)c(=O)c1C(=O)Nc1ccc(OC(F)(F)F)cc1 [Compound 87]	100%		0%	100%	100%	99%	
COC(=O)N(C(=O)c1c(OC(C)=O)cnn(C)c1=O)c1ccc(OC(F)(F)F)cc1 [Compound 88]							Test D disease control rating (Phytophthora infestans; 50 ppm): 57%; Test C disease control rating (Botrytis cinerea; 50 ppm): 0%; Test E disease control rating (Zymoseptoria tritici; 50 ppm): 32%; Test F disease control rating ([1]; 50 ppm): 83%; Test G disease control rating ([2]; 50 ppm): 89%; Test B disease control rating (Plasmopara viticola; 50 ppm): 91%
Cn1ncc2oc(=O)n(-c3ccc(OC(F)(F)F)cc3)c(=O)c2c1=O [Compound 89, 6-Methyl-3-[4-(trifluoromethoxy)phenyl]-2H-pyridazino[4,5-e]-1,3-oxazine-2,4,5(3H,6H)-trione]	99%						pest or weed control at 250 ppm (Phytophthora infestans): 67%; pest or weed control at 250 ppm (Botrytis cinerea; [3]): 0%; pest or weed control at 250 ppm (Zymoseptoria tritici; [3]): 97%; pest or weed control at 250 ppm [1, 3]: 99%; pest or weed control at 250 ppm [2, 3]: 61%
COc1ccc(NC(=O)c2c(O)cnn(C)c2=O)cc1 [Compound 92]	92%	68%	99%	59%	89%	35%	
Cc1ccc(NC(=O)c2c(O)cnn(C)c2=O)cc1 [Compound 93]	94%	93%	15%	65%	91%	87%	
Cn1ncc(OS(C)(=O)=O)c(C(=O)Nc2ccc(Oc3ccccc3)cc2)c1=O [Compound 106]		85%	0%	83%	86%	81%	Test A disease control rating (Phakopsora pachyrhizi): 98%
COc1cccc(NC(=O)c2c(OS(C)(=O)=O)cnn(C)c2=O)c1 [Compound 108]		0%	0%	0%	68%	0%	Test A disease control rating (Phakopsora pachyrhizi): 0%
Cc1ccc(S(=O)(=O)Oc2cnn(C)c(=O)c2C(=O)Nc2ccc(OC(F)(F)F)cc2)cc1 [Compound 112]		46%	0%	43%	95%	0%	Test A disease control rating (Phakopsora pachyrhizi): 25%
Cn1ncc(O)c(C(=O)Nc2c(Cl)cc(Cl)cc2Cl)c1=O [Compound 118]	71%	100%	0%		86%	97%	
O=C(Nc1ccc(OC(F)(F)F)cc1)c1c(O)cnn(CC(F)(F)F)c1=O [Compound 119]	100%	87%	0%	73%	97%	99%	
Cc1cc(OC(F)(F)F)ccc1NC(=O)c1c(O)cnn(C)c1=O [Compound 124]	99%	99%	0%		99%	99%	
Cn1ncc(O)c(C(=O)Nc2ccccc2OC(F)(F)F)c1=O [Compound 126]	95%		0%	82%	89%	93%	
CC(C)n1ncc(O)c(C(=O)Nc2ccc(OC(F)(F)F)cc2)c1=O [Compound 131]	98%	99%	0%	51%	91%	100%	
CCCC(=O)Oc1cnn(C)c(=O)c1C(=O)N(C(=O)CCC)c1ccc(OC(F)(F)F)cc1 [Compound 139]	100%	0%	0%		100%	100%	
Cn1ncc(O)c(C(=O)Nc2ccc(F)cc2C(F)(F)F)c1=O [Compound 145]	100%		0%	99%	99%	99%	
Cn1ncc(O)c(C(=O)Nc2ccc(OC(F)(F)F)cc2C(F)(F)F)c1=O [Compound 148]	79%		0%	79%	86%	98%	
Cn1ncc(Cl)c(C(=O)Nc2ccc(Br)cc2)c1=O [Compound 149]		68%	0%	0%	99%	0%	Test A disease control rating (Phakopsora pachyrhizi): 92%

Reference: US20190133128A1, “Fungicidal pyridazinones” (FMC Corporation, priority 2017, published 2019)
